Test results as given in article PMC12808100, “The non-catalytic DNA polymerase ε subunit is an NPF motif recognition protein” (Nature Communications, 2025).

What was measured:
[1] = system: POLE; test: Titration nHU, Western blot, endogenous POLE in Jurkat extract; type: binding, human; conditions: titration nHU, Jurkat extract
Text: (§1) To identify the partners of NPF motifs, we used the native holdup (nHU) assay that was recently developed by our team (Fig. 1B). The holdup approach has been extensively used to determine equilibrium dissociation constants of transient interactions mediated by PDZ and SH3 domains, 14-3-3, and human papilloma virus E6 proteins, and even nucleic acid-protein interactions[7],[30]–[35]. In the nHU experiments, a purified bait molecule, or a control compound, is immobilized on a resin at high concentration (typically 10 μM, or higher) and these resin stocks are subsequently mixed with dilute cell extracts. After a relatively long incubation, i.e., 2 h at 4 °C, the liquid phase is separated by centrifugation. This liquid phase contains the unbound prey molecules at near binding equilibrium that can be quantified using selective and quantitative analytical approaches, such as mass spectrometry. Therefore, proteins that interact with the bait molecule will appear to be depleted in the solvent phase and by measuring its relative concentration compared to the control nHU experiment, the degree of binding (θ) can be determined that can be converted to apparent steady-state dissociation constants, according to:1 θ=1−Ifree/Itot=Cbait/Cbait+Kapp where Itot and Ifree are the measured total and bait-depleted equilibrium mass spectrometry total ion intensities of prey proteins, Cbait is the bait molecule concentration and Kapp is the apparent dissociation constant.
Jurkat E6.1 cells (ECACC #88042803, RRID: CVCL_0367) were grown in RPMI (Gibco) medium completed with 10% FBS (Gibco BRL) and 40 μg/ml gentamicin (Gibco/Life Technology). To prepare total cell extracts, Jurkat cells were seeded onto T-175 flasks and grew until 3 × 10^6 cells/ml confluency. Cells were collected by 1000 g x 5 min centrifugation, washed with PBS and then lysed in ice-cold lysis buffer (Hepes-KOH pH 7.5 50 mM, NaCl 150 mM, Triton X-100 1%, cOmplete EDTA-free protease inhibitor cocktail 5x, TCEP 5 mM, glycerol 10%).
Cell suspensions were sonicated 4×20 sec with 1 sec long pulse on ice, then incubated rotating at 4 °C for 30 min. The lysates were centrifuged at 12,000 rpm 4 °C for 20 min and supernatant was kept. Total protein concentration was measured by standard Bradford method (Bio-Rad Protein Assay Dye Reagent #5000006) using a BSA calibration curve (MP Biomedicals #160069, diluted in lysis buffer) on a Bio-Rad SmartSpec 3000 spectrophotometer instrument.
Titration holdup experiments were carried out as described above using 25 μl saturated resins prepared. Briefly, we mixed control, or bait-saturated resins at various proportions by keeping the total resin amount and resin-analyte ratio constant during the experiment (for 25 μl we used 100 μl cell extract as analyte). In titration experiments with protein baits, bait concentration was determined as described above for the saturated resin stocks. Experiments were carried out at 4 °C for 2 h and recovered supernatants were subjected to western blot or dot blot analysis.
For Western blot, samples were mixed with 4x Laemmli Sample Buffer in 3:1 ratio. Equal amounts of samples were loaded on 6-10% acrylamide-gels (generally 16 μg). Transfer was done into PVDF membranes using a Trans-Blot Turbo Transfer System and Trans-Blot Turbo RTA Transfer Kit (BioRad, #1704275). For Dot blot, nHU samples were directly loaded on Nitrocellulose membranes using 48 Sample vacuum manifold (Cleaver Scientific) following the manufacturer’s recommendations.
After 1 h of blocking in 5% milk, membranes were incubated overnight at 4 °C with primary antibodies in 5% milk-TBS-Tween.

[2] = system: POLE; test: nHU-MS peptide bait, prey POLE; conditions: FigureS2 Volcano
[3] = system: endogenous proteins of Jurkat extract; test: Single-point nHU-MS with biotinylated NPF motif peptide baits, proteome-wide; type: binding, human; conditions: FigureS2 Volcano; prey FBXO3
Text: as §1, with “After a relatively long incubation, i.e., 2 h at 4 °C, the liquid phase is separated by centrifugation.” left out, “constant. […]” for “constant.”

[4] = molecular target: T1, EHD1 (Homo sapiens, UniProt Q9H4M9); test: nHU-MS peptide bait, prey EHD1; conditions: FigureS2 Volcano; prey EHD1
T1 sequence (Q9H4M9 1-534): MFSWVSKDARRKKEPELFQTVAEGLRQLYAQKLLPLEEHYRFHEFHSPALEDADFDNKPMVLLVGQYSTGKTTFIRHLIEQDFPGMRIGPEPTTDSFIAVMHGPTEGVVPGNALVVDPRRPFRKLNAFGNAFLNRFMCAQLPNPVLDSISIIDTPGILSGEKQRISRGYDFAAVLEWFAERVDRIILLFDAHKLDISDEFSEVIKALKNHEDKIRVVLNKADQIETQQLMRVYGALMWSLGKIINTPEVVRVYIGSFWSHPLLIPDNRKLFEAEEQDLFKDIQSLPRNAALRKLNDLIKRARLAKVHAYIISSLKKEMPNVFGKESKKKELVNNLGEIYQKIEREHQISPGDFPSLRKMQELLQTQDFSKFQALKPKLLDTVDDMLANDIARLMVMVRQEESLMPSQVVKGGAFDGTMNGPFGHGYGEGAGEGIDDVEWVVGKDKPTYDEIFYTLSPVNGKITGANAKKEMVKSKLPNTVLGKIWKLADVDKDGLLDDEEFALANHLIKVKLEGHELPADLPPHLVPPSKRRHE

TSETSK [SYNJ1]
weaker POLE binding than the DONSON motif [1]: ~ 6 fold | log2FC [2]: -0.4452 | log2FC [3]: -0.5002 | -log10P [4]: 14.1958 | log2FC [4]: -0.4973
